The values that follow come from patent US4540705A, “Antidepressant imidazolines and related compounds” (priority 1983, dated 1985).

Read-outs that look alike come from different tables or passages of the source.

A word on the Ki: it is the equilibrium dissociation constant of an inhibitor or competing ligand from its target. Broadly, the ED50 is the midpoint of the dose-response relation.

Experiment [1] concerns the target T1, α2 -adrenergic binding sites (receptor) (Rattus norvegicus, UniProt P22909).
T1 construct: to displace ^3 H-clonidine (an α2 -adrenergic agonist) from membranes of rat brain; from tissue; host or cells: rat cerebral cortex homogenate (membranes)
T1 sequence (P22909 1-465): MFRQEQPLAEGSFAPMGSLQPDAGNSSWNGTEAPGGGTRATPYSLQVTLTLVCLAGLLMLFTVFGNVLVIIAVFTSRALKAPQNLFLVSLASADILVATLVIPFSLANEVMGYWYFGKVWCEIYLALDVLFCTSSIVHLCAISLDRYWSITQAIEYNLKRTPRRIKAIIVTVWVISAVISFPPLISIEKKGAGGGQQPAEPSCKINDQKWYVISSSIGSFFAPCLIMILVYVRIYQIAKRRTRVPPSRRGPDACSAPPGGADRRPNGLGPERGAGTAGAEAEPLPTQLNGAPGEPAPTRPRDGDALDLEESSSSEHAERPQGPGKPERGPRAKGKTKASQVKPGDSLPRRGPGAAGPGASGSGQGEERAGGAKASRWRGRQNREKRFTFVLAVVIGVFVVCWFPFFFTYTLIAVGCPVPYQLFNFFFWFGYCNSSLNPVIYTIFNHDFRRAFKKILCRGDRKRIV
Kind of experiment: Tritiated Clonidine Receptor Binding Assay. The settings on record: for inhibition at 1 µM: at 1000 nM, read-out: Clonidine [^3 H] Binding % I. The procedure:
(§1) The α2 -adrenergic antagonist activity is measured by three screening methods, described as follows:
(1) Tritiated Clonidine Receptor Binding Assay
Affinity is determined by assessing the ability of compounds to displace ^3 H-clonidine (an α2 -adrenergic agonist) from membranes of rat brain. Homogenates of rat cerebral cortex are incubated with 0.4 nM ^3 H-clonidine which binds to the α2 -adrenergic binding sites (receptor) present on the membranes of the homogenate. Compounds that bind to the α2 -adrenergic receptor, when added to the incubation mixture, will displace ^3 H-clonidine from its binding site, thereby diminishing the amount of bound radioactivity. The amount of ^3 H-clonidine still bound is quantitated by liquid scintillation spectrometry. The results are determined in terms of percent inhibition or as Ki values. Ki is a measure of the apparent affinity of the test substance for the α2 -adrenergic binding site, as determined by the method of Cheng and Prusoff, Biochemical Pharmacology 22, 3099 (1973).

In experiment [2] the test system is mice (α2 -adrenergic antagonism of clonidine). Nature of the experiment: In vivo Antagonism of Clonidine-induced Anti-nociception (phenyl-p-quinone writhing). The settings on record: Mus musculus; for ED50: read-out: Antagonism of Clonidine Analgesia ED50 -p.o. The method, then:
as §1
(3) In vivo Antagonism of Clonidine-induced Anti-nociception
The intraperitoneal administration of phenyl-p-quinone (PPQ) to mice elicits a nociceptive response which consists of abdominal writhing and extension of the hind limbs. This writhing response is prevented in mice treated with clonidine. When an α2 -adrenergic antagonist is given prior to clonidine, the mice display the writhing response when PPQ is administered. To groups of thirty male mice for each experiment the test compound dissolved in 0.9% sodium chloride was administered either subcutaneously or orally. Clonidine (0.2 mg/kg) was administered orally when the test compound was given subcutaneously and subcutaneously when the test compound was administered orally. Twenty minutes after the administration of clonidine, PPQ (3 mg/kg) was given intraperitoneally. […] The number of mice that writhed at least three times during the five minute observation period was counted. The number of mice that writhed was scored for each dose of antagonist, and the percentage reversal of clonidine-induced anti-nociception (analgesia) was calculated by dividing the number of animals writhing by the total number of test animals and multiplying the quotient by 100.
(In writhing tests, fewer writhes than in controls are read as antinociception.)

Experiment [3] concerns the target T2, α2 -adrenergic, isolated rat vas deferens (Rattus norvegicus, UniProt P22909).
T2 construct: isolated, electrically stimulated rat vas deferens; from tissue; host or cells: isolated rat vas deferens
T2 sequence (P22909 1-465): T1 sequence (P22909 1-465)
Nature of the experiment: Vas Deferens Assay: antagonism of clonidine-induced inhibition of twitch height. It counts as biochemical. The procedure:
as §1
Activity is determined by assessing the ability of compounds to antagonize the inhibition of twitch height induced by clonidine in the isolated, electrically stimulated rat vas deferens. […] The tissue is then rinsed to remove clonidine and, when the twitch height has returned to normal, the test compound is added. The ability of clonidine to inhibit twitch height is then again determined, and the clonidine-induced inhibition in the presence of the test compound is used to calculate percent antagonism of clonidine. Results are recorded in terms of percent inhibition at the concentration of antagonist used, or as pA2 values, determined by the Schild method; cf. Tallarida and Murray, Manual of Pharmacologic Calculations, pp. 29-32 (Springer-Verlag, 1981).

The next experiment concerns mice. Nature of the experiment: Prevention of tetrabenazine-induced ptosis in mice. The experiment is classed as in vivo. The settings on record: Mus musculus, read-out: Tetrabenazine Reversal ED50. The source says: A further measure of potential andidepressant activity was obtained by determining the effectiveness of the compounds of the invention in prevention of tetrabenazine-induced ptosis in mice by the method described by Barnett et al., Int. J. Neuropharmacol. 8, 353-360 (1969). The results were expressed in terms of ED50 values (effective dose in 50% of the animals).

In experiment [4] the test system is α2 -adrenergic. Nature of the experiment: α2 -adrenergic antagonist activity (general statement). The procedure: On the other hand, the sympathomimetic activity characteristic of the latter group of compounds is not present in the compounds of the present invention.
The α2 -adrenergic antagonist activity is measured by three screening methods, described as follows: […]

Experiment [5] relates to α2 -adrenergic. To be noted: prior-art compounds; cited from earlier work.
A further experiment relates to male rats. Nature of the experiment: Diuretic activity in male rats in comparison with hydrochlorothiazide. It counts as in vivo, rat.
The mark [6] stands for this setting: 0.4 nM ^3 H-clonidine, rat cerebral cortex homogenate, read-out: Clonidine [^3 H] Binding Ki.
Where [7] appears, read: sc, 100 mg/kg s.c., read-out: Antagonism of Clonidine Analgesia % A.
The mark [8] stands for this setting: Schild method, clonidine 10 nM, read-out: Rat Vas Deferens pA2 (converted).
The mark [9] stands for this setting: sc, 30 mg/kg s.c., read-out: Antagonism of Clonidine Analgesia % A.
[10] abbreviates: 0.4 nM ^3 H-clonidine, rat cerebral cortex homogenate.
Setting [11] is: rat, at 500 nM, clonidine 10 nM.
Setting [12] is: po, 100 mg/kg p.o., read-out: Antagonism of Clonidine Analgesia % A.

Regarding `C[C@@H]1c2ccccc2CC[C@H]1CC1=NCCN1` (relative stereo) [15(d), trans-4,5-Dihydro-2-[(1,2,3,4-tetrahydro-1-methyl-2-naphthalenyl)methyl]-1H-imidazole], in experiment [1] (setting [6]), the Ki stood at 401 nM. The responders at 100 mg/kg in experiment [2] (setting [7]) amounted to 30%.
Turning to `Cc1c(CC2=NCCN2)ccc2ccccc12` [17(e), 4,5-Dihydro-2-[(1-methyl-2-naphthalenyl)methyl]-1H-imidazole], the Ki in experiment [1] (setting [6]) came out at 7 nM. In experiment [3] (setting [8]), the Kb is 44.7 nM. Further, the ED50 in experiment [2] (po) is 27 mg/kg; with mice, 3 mg/kg. Also, in experiment [2] (setting [7]), the responders at 100 mg/kg came to 70%.
For the molecule `CC(C1=Cc2ccccc2CC1)C1=NCCN1` (stereo not shown) [7(b), 2-[1-(3,4-Dihydro-2-naphthalenyl)ethyl]-4,5-dihydro-1H-imidazole], in experiment [1] (setting [6]), the Ki amounted to 32 nM. Also, the Kb in experiment [3] (setting [8]) is 37.2 nM. Moreover, in experiment [2] (setting [9]), the responders at 30 mg/kg amounted to 70%.
As for `c1ccc2c(c1)CCCC2C1=NCCN1` (stereo not shown) [tetrahydrozoline, 2-(1,2,3,4-tetrahydro-1-naphthyl)-2-imidazoline, reference compound], the “α2 -adrenergic antagonist activity (in words)” value in the experiment on α2 -adrenergic [4] is reported as “essentially devoid of such activity”. Besides, the “α2 -adrenergic antagonist activity (in words, background section)” value in the experiment with α2 -adrenergic [5] is given as “do not possess α2 -adrenergic antagonist activity”.
Turning to `CC1=C(CC2=NCCCN2)CCc2ccccc21` [Example 3, 2-[(3,4-Dihydro-1-methyl-2-naphthalenyl)methyl]-1,4,5,6-tetrahydropyrimidine], in experiment [1] (setting [6]), the Ki came to 334 nM.
In the case of `COc1ccc2c(c1)CCC(CC1=NCCN1)=C2C` [8(b), 2-[(3,4-Dihydro-6-methoxy-1-methyl-2-naphthalenyl)methyl]-4,5-dihydro-1H-imidazole], the inhibition at 1 µM in experiment [1] (setting [10]) stood at 53%. The inhibition at 0.5 µM in experiment [3] (setting [11]) is 1%.
With `c1ccc2cc(CC3=NCCN3)ccc2c1` [Example 18, 4,5-Dihydro-2-(2-naphthalenylmethyl)-1H-imidazole], the Ki in experiment [1] was 48 nM. Further, in experiment [3], the Kb was 21.4 nM. The responders at 100 mg/kg in experiment [2] (setting [12]) is 80%. Further, the ED50 amounted to 53 mg/kg in experiment [2] (po) and 27 mg/kg in the experiment with mice.
On to `CC1=C(CC2=NC(C)CN2)CCc2ccccc21` (stereo not shown) [Example 6, 2-[(3,4-Dihydro-1-methyl-2-naphthalenyl)methyl]-4,5-dihydro-4-methyl-1H-imidazole], for which the inhibition at 1 µM in experiment [1] (setting [10]) amounted to 59%. In experiment [3] (rat, at 1 (head: Conc. (nM)), clonidine 10 nM), this molecule returned an inhibition at 0.001 µM of 3%. In addition, the responders at 100 mg/kg in experiment [2] (setting [7]) turned out to be 20%.
`CCN1CCN=C1CC1=C(C)c2ccccc2CC1` [Example 5, 2-[(3,4-Dihydro-1-methyl-2-naphthalenyl)methyl]-1-ethyl-4,5-dihydro-1H-imidazole]: the Ki in experiment [1] (setting [6]) was found to be 548 nM. The molecule also returned an inhibition at 0.5 µM in experiment [3] (setting [11]) of 2%. Further, in experiment [2] (setting [7]), the responders at 100 mg/kg amounted to 20%.
Take `C1=C(CC2=NCCN2)CCc2ccccc21` [Example 2(b), 2-[(3,4-Dihydro-2-naphthalenyl)methyl]-4,5-dihydro-1H-imidazole]: the Ki in experiment [1] (setting [6]) is 28 nM. Moreover, in experiment [3] (setting [8]), the Kb is 17.4 nM. Moreover, the ED50 in experiment [2] (po) turned out to be 33 mg/kg; in the experiment with mice, 284 mg/kg. For the same molecule, the responders at 100 mg/kg in experiment [2] (setting [7]) amounted to 90%.
As for `C[C@@H]1c2ccccc2CC[C@@H]1CC1=NCCN1` (relative stereo) [Example 16, cis-4,5-Dihydro-2-[(1,2,3,4-tetrahydro-1-methyl-2-naphthalenyl)methyl]-1H-imidazole], the Ki in experiment [1] (setting [6]) came out at 135 nM. In experiment [3] (setting [8]), the Kb is 60.3 nM.
In the case of `CC1=C(CC2=NCCN2C)CCc2ccccc21` [4(b), 2-[(3,4-Dihydro-1-methyl-2-naphthalenyl)methyl]-4,5-dihydro-1-methyl-1H-imidazole], in experiment [1] (setting [10]), the inhibition at 1 µM was determined as 60%. Moreover, the “Rat Vas Deferens % A.” value in experiment [3] (at 500 nM, clonidine 10 nM, 0.5 µM) is recorded as 3%. In experiment [3] (setting [11]), the inhibition at 0.5 µM worked out at 2%. In addition, the responders at 100 mg/kg in experiment [2] (setting [7]) worked out at 20%.
For the molecule `CC1=C(CC2=NCC(C)(C)CN2)CCc2ccccc21` [Example 12, 2-[(3,4-Dihydro-1-methyl-2-naphthalenyl)methyl]-1,4,5,6-tetrahydro-5,5-dimethylpyrimidine], the “increase of sodium excretion, activity relative to hydrochlorothiazide” value with male rats (30 mg/kg oral) is 38%; in the experiment on male rats (100 mg/kg oral) it was 94%. The “diuretic activity (in words)” value in the experiment on male rats (in comparison with hydrochlorothiazide) is recorded as “found to possess diuretic activity”. Further, in the experiment on α2 -adrenergic [4], the “α2 -adrenergic antagonist activity (in words)” value is on record as “apparently devoid of any significant α2 -adrenergic antagonist properties”.
`CC1=C(Cc2ncc[nH]2)CCc2ccccc21` [Example 11, 2-[(3,4-Dihydro-1-methyl-2-naphthalenyl)methyl]-1H-imidazole]: the Ki in experiment [1] (setting [6]) amounted to 88 nM. Further, the Kb in experiment [3] (setting [8]) is 120 nM. The responders at 30 mg/kg in experiment [2] (setting [9]) was 60%.
Consider `C1=C(CC2=NCCN2)Cc2ccccc21` [10(b), 4,5-Dihydro-2-[(1H-inden-2-yl)methyl]-1H-imidazole], for which, in experiment [1] (setting [6]), the Ki turned out to be 76 nM. The Kb in experiment [3] (setting [8]) was 64.6 nM. For the same molecule, in experiment [2] (sc, 10 mg/kg s.c., read-out: Antagonism of Clonidine Analgesia % A.), the responders at 10 mg/kg turned out to be 70%.
For `CC1=C(CC2=NCCN2)CCc2ccccc21` [1(b), 2-[(3,4-Dihydro-1-methyl-2-naphthalenyl)methyl]-4,5-dihydro-1H-imidazole], the Ki in experiment [1] (setting [6]) turned out to be 11.9 nM. In addition, the Kb in experiment [3] (setting [8]) was 63.1 nM. Also, the responders at 100 mg/kg in experiment [2] (setting [12]) stood at 50%. For the same molecule, the ED50 came to 111 mg/kg in experiment [2] (po) and 18 mg/kg in the experiment with mice.
Consider `CC1=C(CC2=NCCN2)Cc2ccccc21` [9(b), 4,5-Dihydro-2-[(3-methyl-1H-inden-2-yl)methyl]-1H-imidazole], for which the Ki in experiment [1] (setting [6]) amounted to 7 nM. In experiment [3] (setting [8]), the Kb is 19.5 nM. In addition, in experiment [2] (po, 30 mg/kg p.o., read-out: Antagonism of Clonidine Analgesia % A.), the responders at 30 mg/kg came out at 10%.
